Legend:
Test in all cases: relative viability (nuclei count vs DMSO), 5 days (fraction); higher = more cells survive
H3255 = tested on: H3255
How it was run: (§1)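 After 5 days of treatment, lung cancer cells in 1536-well plates were fixed and stained in a single step (final 0.05% Triton X-100, 1% formaldehyde, 1 ug/ml Hoechst) and their nuclei counted on 4× images. Treatment had been applied by pin tool the day after seeding as one drug alone or as a fixed anchor-drug dose with five library-drug doses (not always all listed) in √10 steps. Relative viability is the nuclei count of treated wells divided by that of vehicle wells, and values are medians of duplicate plates.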

NCI-H1792 = tested on: NCI-H1792
How it was run: as §1

SW 900 = tested on: SW 900
How it was run: as §1

NCI-H520 = tested on: NCI-H520
How it was run: as §1

NCI-H522 = tested on: NCI-H522
How it was run: as §1

NCI-H1793 = tested on: NCI-H1793
How it was run: as §1

LXF-289 = tested on: LXF-289
How it was run: as §1

NCI-H1944 = tested on: NCI-H1944
How it was run: as §1

NCI-H1975 = tested on: NCI-H1975
How it was run: as §1

NCI-H2023 = tested on: NCI-H2023
How it was run: as §1

HCC-827 = tested on: HCC-827
How it was run: as §1

NCI-H2170 = tested on: NCI-H2170
How it was run: as §1

NCI-H1993 = tested on: NCI-H1993
How it was run: as §1

NCI-H2087 = tested on: NCI-H2087
How it was run: as §1

A-427 = tested on: A-427
How it was run: as §1

LCLC-103H = tested on: LCLC-103H
How it was run: as §1

COR-L 105 = tested on: COR-L 105
How it was run: as §1

HCC-44 = tested on: HCC-44
How it was run: as §1

LOU-NH91 = tested on: LOU-NH91
How it was run: as §1

NCI-H358 = tested on: NCI-H358
How it was run: as §1

NCI-H1915 = tested on: NCI-H1915
How it was run: as §1

SK-MES-1 = tested on: SK-MES-1
How it was run: as §1

SW 1573 = tested on: SW 1573
How it was run: as §1

Question: Which relative viability (H3255; first compound 0.02 µM) does the source give for `CN1CCN(CCOc2cc(OC3CCOCC3)c3c(Nc4c(Cl)ccc5c4OCO5)ncnc3c2)CC1` [Saracatinib] + O=C(c1cc(Cc2n[nH]c(=O)c3ccccc23)ccc1F)N1CCN(C(=O)C2CC2)CC1 [Olaparib] (partner 8 µM) here?
Answer: Its relative viability is 0.623.

Question: What about the relative viability (H3255; first compound 0.2 µM) of the same compound?
Answer: The relative viability was 0.496.

Question: What about the relative viability (H3255; first compound 0.6325 µM) of the same compound?
Answer: Its relative viability is 0.593.

Question: And the relative viability (H3255; first compound 2 µM)?
Answer: Its relative viability is 0.301.

Question: What about the relative viability (NCI-H1792; first compound 0.02 µM) of the same compound?
Answer: Its relative viability is 0.537.

Question: What about the relative viability (NCI-H1792; first compound 0.2 µM) of the same compound?
Answer: Its relative viability is 0.352.

Question: And the relative viability (NCI-H1792; first compound 0.6325 µM)?
Answer: The relative viability was 0.644.

Question: What about the relative viability (NCI-H1792; first compound 2 µM) of the same compound?
Answer: Its relative viability is 0.385.

Question: And the relative viability (SW 900; first compound 0.02 µM)?
Answer: Its relative viability is 0.831.

Question: And the relative viability (SW 900; first compound 0.2 µM)?
Answer: Its relative viability is 0.753.

Question: And the relative viability (SW 900; first compound 0.6325 µM)?
Answer: Its relative viability is 0.784.

Question: What about the relative viability (SW 900; first compound 2 µM) of the same compound?
Answer: Its relative viability is 0.643.

Question: And the relative viability (NCI-H520; first compound 0.02 µM)?
Answer: The relative viability was 0.354.

Question: What about the relative viability (NCI-H520; first compound 0.2 µM) of the same compound?
Answer: The relative viability was 0.327.

Question: What about the relative viability (NCI-H520; first compound 0.6325 µM) of the same compound?
Answer: The relative viability was 0.289.

Question: What about the relative viability (NCI-H520; first compound 2 µM) of the same compound?
Answer: The relative viability was 0.243.

Question: And the relative viability (NCI-H522; first compound 0.02 µM)?
Answer: Its relative viability is 0.679.

Question: And the relative viability (NCI-H522; first compound 0.2 µM)?
Answer: Its relative viability is 0.59.

Question: What about the relative viability (NCI-H522; first compound 0.6325 µM) of the same compound?
Answer: The relative viability was 0.572.

Question: What about the relative viability (NCI-H522; first compound 2 µM) of the same compound?
Answer: Its relative viability is 0.534.

Question: And the relative viability (NCI-H1793; first compound 0.02 µM)?
Answer: Its relative viability is 0.872.

Question: And the relative viability (NCI-H1793; first compound 0.2 µM)?
Answer: The relative viability was 0.498.

Question: And the relative viability (NCI-H1793; first compound 0.6325 µM)?
Answer: Its relative viability is 0.777.

Question: And the relative viability (NCI-H1793; first compound 2 µM)?
Answer: The relative viability was 0.564.

Question: And the relative viability (LXF-289; first compound 0.02 µM)?
Answer: The relative viability was 1.07.

Question: What about the relative viability (LXF-289; first compound 0.2 µM) of the same compound?
Answer: The relative viability was 0.916.

Question: What about the relative viability (LXF-289; first compound 0.6325 µM) of the same compound?
Answer: The relative viability was 1.09.

Question: What about the relative viability (LXF-289; first compound 2 µM) of the same compound?
Answer: Its relative viability is 1.04.

Question: And the relative viability (NCI-H1944; first compound 0.02 µM)?
Answer: The relative viability was 0.406.

Question: What about the relative viability (NCI-H1944; first compound 0.2 µM) of the same compound?
Answer: Its relative viability is 0.344.

Question: What about the relative viability (NCI-H1944; first compound 0.6325 µM) of the same compound?
Answer: The relative viability was 0.44.

Question: What about the relative viability (NCI-H1944; first compound 2 µM) of the same compound?
Answer: The relative viability was 0.358.

Question: What about the relative viability (NCI-H1975; first compound 0.02 µM) of the same compound?
Answer: Its relative viability is 0.787.

Question: And the relative viability (NCI-H1975; first compound 0.2 µM)?
Answer: Its relative viability is 0.793.

Question: What about the relative viability (NCI-H1975; first compound 0.6325 µM) of the same compound?
Answer: The relative viability was 0.804.

Question: And the relative viability (NCI-H1975; first compound 2 µM)?
Answer: Its relative viability is 0.517.

Question: And the relative viability (NCI-H2023; first compound 0.02 µM)?
Answer: The relative viability was 0.503.

Question: What about the relative viability (NCI-H2023; first compound 0.6325 µM) of the same compound?
Answer: Its relative viability is 0.417.

Question: What about the relative viability (NCI-H2023; first compound 2 µM) of the same compound?
Answer: The relative viability was 0.393.

Question: And the relative viability (HCC-827; first compound 0.02 µM)?
Answer: The relative viability was 0.66.

Question: What about the relative viability (HCC-827; first compound 0.2 µM) of the same compound?
Answer: Its relative viability is 0.532.

Question: And the relative viability (HCC-827; first compound 0.6325 µM)?
Answer: Its relative viability is 0.192.

Question: And the relative viability (HCC-827; first compound 2 µM)?
Answer: Its relative viability is 0.16.

Question: What about the relative viability (NCI-H2170; first compound 0.02 µM) of the same compound?
Answer: Its relative viability is 0.597.

Question: What about the relative viability (NCI-H2170; first compound 0.2 µM) of the same compound?
Answer: Its relative viability is 0.539.

Question: And the relative viability (NCI-H2170; first compound 0.6325 µM)?
Answer: Its relative viability is 0.558.

Question: What about the relative viability (NCI-H2170; first compound 2 µM) of the same compound?
Answer: Its relative viability is 0.524.

Question: And the relative viability (NCI-H1993; first compound 0.02 µM)?
Answer: The relative viability was 1.03.

Question: And the relative viability (NCI-H1993; first compound 0.2 µM)?
Answer: Its relative viability is 1.02.

Question: What about the relative viability (NCI-H1993; first compound 0.6325 µM) of the same compound?
Answer: Its relative viability is 1.01.

Question: And the relative viability (NCI-H1993; first compound 2 µM)?
Answer: The relative viability was 0.989.

Question: And the relative viability (NCI-H2087; first compound 0.02 µM)?
Answer: Its relative viability is 0.485.

Question: What about the relative viability (NCI-H2087; first compound 0.2 µM) of the same compound?
Answer: Its relative viability is 0.449.

Question: And the relative viability (NCI-H2087; first compound 0.6325 µM)?
Answer: The relative viability was 0.552.

Question: What about the relative viability (NCI-H2087; first compound 2 µM) of the same compound?
Answer: The relative viability was 0.515.

Question: What about the relative viability (A-427; first compound 0.02 µM) of the same compound?
Answer: The relative viability was 0.733.

Question: What about the relative viability (A-427; first compound 0.2 µM) of the same compound?
Answer: The relative viability was 0.689.

Question: What about the relative viability (A-427; first compound 0.6325 µM) of the same compound?
Answer: The relative viability was 0.715.

Question: What about the relative viability (A-427; first compound 2 µM) of the same compound?
Answer: Its relative viability is 0.71.

Question: What about the relative viability (LCLC-103H; first compound 0.02 µM) of the same compound?
Answer: Its relative viability is 0.796.

Question: And the relative viability (LCLC-103H; first compound 0.2 µM)?
Answer: Its relative viability is 0.71.

Question: And the relative viability (LCLC-103H; first compound 0.6325 µM)?
Answer: Its relative viability is 0.758.

Question: What about the relative viability (LCLC-103H; first compound 2 µM) of the same compound?
Answer: Its relative viability is 0.807.

Question: What about the relative viability (COR-L 105; first compound 0.02 µM) of the same compound?
Answer: Its relative viability is 0.594.

Question: And the relative viability (COR-L 105; first compound 0.2 µM)?
Answer: Its relative viability is 0.617.

Question: And the relative viability (COR-L 105; first compound 0.6325 µM)?
Answer: The relative viability was 0.698.

Question: And the relative viability (COR-L 105; first compound 2 µM)?
Answer: Its relative viability is 0.698.

Question: And the relative viability (HCC-44; first compound 0.02 µM)?
Answer: The relative viability was 0.979.

Question: What about the relative viability (HCC-44; first compound 0.2 µM) of the same compound?
Answer: The relative viability was 0.863.

Question: And the relative viability (HCC-44; first compound 0.6325 µM)?
Answer: Its relative viability is 0.97.

Question: And the relative viability (HCC-44; first compound 2 µM)?
Answer: The relative viability was 0.976.

Question: And the relative viability (LOU-NH91; first compound 0.02 µM)?
Answer: The relative viability was 0.862.

Question: And the relative viability (LOU-NH91; first compound 0.2 µM)?
Answer: The relative viability was 0.711.

Question: And the relative viability (LOU-NH91; first compound 0.6325 µM)?
Answer: The relative viability was 0.73.

Question: What about the relative viability (LOU-NH91; first compound 2 µM) of the same compound?
Answer: Its relative viability is 0.613.

Question: What about the relative viability (NCI-H358; first compound 0.02 µM) of the same compound?
Answer: The relative viability was 0.527.

Question: And the relative viability (NCI-H358; first compound 0.2 µM)?
Answer: Its relative viability is 0.529.

Question: And the relative viability (NCI-H358; first compound 0.6325 µM)?
Answer: Its relative viability is 0.272.

Question: What about the relative viability (NCI-H358; first compound 2 µM) of the same compound?
Answer: The relative viability was 0.324.

Question: What about the relative viability (NCI-H1915; first compound 0.02 µM) of the same compound?
Answer: The relative viability was 0.256.

Question: And the relative viability (NCI-H1915; first compound 0.2 µM)?
Answer: The relative viability was 0.244.

Question: And the relative viability (NCI-H1915; first compound 0.6325 µM)?
Answer: Its relative viability is 0.281.

Question: And the relative viability (NCI-H1915; first compound 2 µM)?
Answer: Its relative viability is 0.225.

Question: What about the relative viability (SK-MES-1; first compound 0.02 µM) of the same compound?
Answer: Its relative viability is 0.703.

Question: What about the relative viability (SK-MES-1; first compound 0.2 µM) of the same compound?
Answer: Its relative viability is 0.69.

Question: And the relative viability (SK-MES-1; first compound 0.6325 µM)?
Answer: The relative viability was 0.49.

Question: And the relative viability (SK-MES-1; first compound 2 µM)?
Answer: Its relative viability is 0.299.

Question: What about the relative viability (SW 1573; first compound 0.02 µM) of the same compound?
Answer: The relative viability was 0.502.

Question: And the relative viability (SW 1573; first compound 0.2 µM)?
Answer: The relative viability was 0.382.

Question: And the relative viability (SW 1573; first compound 0.6325 µM)?
Answer: Its relative viability is 0.448.

Question: What about the relative viability (SW 1573; first compound 2 µM) of the same compound?
Answer: The relative viability was 0.384.

From the supplement of paper PMC10307832
